Results published in patent US5340800A, “Peptide medicaments for the treatment of disease” (priority 1992, dated 1994).
Where two headings read alike, the source gives them in different places. No end group written: not given here.

Experiments:
[1] = system: polymorphonuclear leukocyte adhesion to TNF activated endothelial cells; format: cell-based, human; conditions: for Average % Change of PMN Adhesion to TNF Activated ECs: average over PMN donors (# donors in parentheses)
Description: Leukocyte adherence can be measured using several assays known in the art, and the preferred assay is described by Charo, et al., 1985, Blood, 65:473. Briefly, the assay consists of labelling leukocytes with an appropriate label, incubating them with endothelial cells and determining the number of leukocytes that adhere. Preferably the cells are labelled with a gamma ray emitting isotope and the preferred labels are ^111 Indium-oxide or ^51 chromium.
Leukocytes may be isolated from human donors using standard techniques. This generally consists of isolating blood in a physiologically balanced salt solution containing an appropriate anticoagulant, and separating the leukocytes by an appropriate separation step, preferably on Ficoll-Hypaquegradients. Contaminating erythrocytes can be removed by hypotonic lysis. The resulting leukocytes are suspended in a physiologically buffered solution, pH 7.4. The preferred physiological buffered solution is Hank's balanced salt solution that is calcium and magnesium free.
The isolated leukocytes can then be labelled by incubating them for an appropriate time, generally 15 minutes, with the desired radioisotope at a predetermined concentration. The radiolabelled cells are washed to remove unincorporated label, and then suspended in an appropriate solution to perform the adhesion assay described below.
Endothelial cells can be prepared from a number of sources and by several techniques known in the art. Preferably they are obtained from human umbilical veins using the procedure of Charo et al., above. Generally, endothelial cells are isolated by enzymatic digestion of the umbilical veins using, preferably, collagenase as described by Jaffe, E. A., et al., 1973, J. of Clin. Invest, 52:2745. The cells are grown on an appropriate tissue culture substratum, preferably gelatine-coated surfaces.
The endothelial cells may be grown in a variety of tissue culture media containing appropriate supplements such as an appropriate concentration of fetal calf serum, and other supplements/additives routinely utilized by those skilled in this art that are recognized as being favorable for endothelial cells. The endothelial cells may be passaged with a dilute solution of an appropriate protease, and if desired a metal ion chelator. Preferably a solution consisting of 0.05 to 0.25% trypsin and 0.02% EDTA is used. To ensure that the cells are indeed endothelial cells, they are tested by immunofluorescence for Factor VIII antigen, a known endothelial cell marker.
Leukocyte adherence to endothelial cell monolayers may be determined as follows. Early passage endothelial cells, generally not beyond the fifth passage, are cultured on an appropriate substratum and in a suitable cell culture medium. The culture substratum is preferably pre-coated with an appropriate substance that enhances the adherence of the endothelial cells. Several such substances are known including fibronectin, poly-L-lysine, gelatin and laminin. Fibronectin is preferred. An appropriate culture substratum is a 96 well micro titer plate, and a suitable medium is Medium 199 containing fetal calf serum and other supplements known to be beneficial for the growth and maintenance of endothelial cells that are well known to those skilled in the art. Prior to adding a predetermined number of labelled leukocytes, the endothelial cell monolayer is washed with a physiologically balanced salt solution containing a reduced amount of fetal calf serum, preferably 1%. The preferred solution is RPMI supplemented with 1% fetal calf serum.
The endothelial cell monolayer containing added leukocytes is incubated for a time sufficient to permit maximum adherence of the leukocytes, and preferably this is conducted at 37° C. for 30 minutes in an appropriate cell culture atmosphere. Generally this would consist of growing and incubating the cells for the assay period in 5% CO2, 95% air, and 95% humidity. […]

[2] = system: polymorphonuclear leukocyte migration; test: Chemotaxis of polymorphonuclear leukocytes (trans-well, zymosan-activated human serum); format: cell-based
Description: The materials and methods for ascertaining the chemotactic inhibitory properties of peptides are generally known in the art, and the preferred procedure is described by Capsoni, et al., 1989, J. of Immunol. Meth., 120:125. Generally, chemotaxis is determined by positioning the leukocytes and a chemotactic substance on opposite sides of a membrane in appropriate culture media. The preferred apparatus for doing a chemotaxis assay is produced by Costar Corporation, Cambridge, Mass., and is termed the trans-well cell culture apparatus. […] If a substance is being tested for inhibitory activity this can be achieved by combining it with the leukocytes or the chemotactic substance.
The procedure of Capsoni, et al., above, was followed with the following modifications. Leukocytes may be isolated and labelled with ^111 Indium as described for the adhesion assay, above. The cells are resuspended after labelling in an appropriate cell culture medium at about 5×10^6 cells/ml. Next, a desired amount of the cell suspension is mixed with a predetermined amount of the peptide(s) to be tested for inhibitory activity, and the mixture added to an appropriate filter device. Three μm-pore membranes are situated in the wells of a 24 trans-well tissue culture plate. The cell/inhibitory peptide mixture is incubated for a short time at 37° C. to acclimate the cells to the membrane surface, and to provide sufficient time for them to settle onto the membrane surface. Next, inserts are set in wells containing cell culture media. The media contains zymosan-activated human serum at about 0.5%. Zymosan activation generates complement-derived chemotactic factors which attract the leukocytes through the pores of the membrane. This media was also prewarmed for an appropriate time prior to addition to the cell culture wells. After a 30 minute incubation period at 37° C., the number of leukocytes that have migrated through the membrane filter, in the presence or absence of CD18 peptides, is readily determined by counting the amount of ^111 Indium present in the media. This may be facilitated by adding an appropriate detergent at an appropriate concentration to the media in the wells prior to removing an aliquot for counting. In this way, the inhibitory activities of the peptide being tested could be determined.
Many of the materials and methods used to test the inhibitory activity of the CD18 peptides on the chemotactic response of the polymorphonuclear leukocytes are similar or identical to those used to perform the adhesion assays described in Example 1. Polymorphonuclear leukocytes were isolated and labelled with ^111 Indium as described before, and the cells were suspended in RPMI 1640 culture medium at a concentration of 5×10^6 /ml. Next, 75 μl of the cell suspension and 25 μl of media containing a desired concentration of a CD18 peptide were added to trans-well inserts, and the mixture was incubated at 37° C. for 10 minutes.
To the bottom wells of the 24-well plate 0.6 ml of media containing 0.5% zymosan-activated human serum was added. This solution was also warmed to 37° C. for 10 minutes prior to use.
Next, the assay was conducted by incubating the trans-well inserts containing the cell suspension with the desired CD18 peptide in the 24-well plates at 37° C. for 30 minutes. Subsequently, the inserts were removed, and 60 μl of a 10% sodium dodecyl sulphate solution was added to the wells of the 24-well plate. The plates were incubated with gentle shaking at room temperature for 15 minutes, and 110 μl aliquots were removed and the amount of ^111 Indium determined using a gamma-counter.

YPIDLYYLMDLSYSMLDDLRNVKKLG [Peptide 1-26, NH2 --Tyr--Pro--Ile--Asp--Leu--Tyr--Tyr--Leu--Met--Asp--Leu--Ser--Tyr--Ser--Met--Leu--Asp--Asp--Leu--Arg--Asn--Val--Lys--Lys--Leu--Gly--COOH]
concentration of peak inhibitory activity in the PMN adhesion assay [1]: 10^-4 to 10^-5 M
Average % Change of PMN Adhesion to TNF Activated ECs ([1]; 10^-4 M): -41%
Average % Change of PMN Adhesion to TNF Activated ECs ([1]; 10^-5 M): -33%
Average % Change of PMN Adhesion to TNF Activated ECs ([1]; 10^-6 M): -6%
Average % Change of PMN Adhesion to TNF Activated ECs ([1]; 10^-7 M): +24%
Average % Change of PMN Adhesion to TNF Activated ECs ([1]; 10^-8 M): +9%
percent inhibition (-) or enhancement of polymorphonuclear leukocyte migration ([2]; 10^-4 M, donor 195): 19%
percent inhibition (-) or enhancement of polymorphonuclear leukocyte migration ([2]; 10^-4 M, donor 499): 8%
percent inhibition (-) or enhancement of polymorphonuclear leukocyte migration ([2]; 10^-4 M, donor 591): -9%
percent inhibition (-) or enhancement of polymorphonuclear leukocyte migration ([2]; 10^-4 M, donor 593): -50%
percent inhibition (-) or enhancement of polymorphonuclear leukocyte migration ([2]; 10^-5 M, donor 195): -41%
percent inhibition (-) or enhancement of polymorphonuclear leukocyte migration ([2]; 10^-5 M, donor 499): -3%
percent inhibition (-) or enhancement of polymorphonuclear leukocyte migration ([2]; 10^-5 M, donor 591): -36%
percent inhibition (-) or enhancement of polymorphonuclear leukocyte migration ([2]; 10^-5 M, donor 593): -19%
percent inhibition (-) or enhancement of polymorphonuclear leukocyte migration ([2]; 10^-6 M, donor 195): -37%
percent inhibition (-) or enhancement of polymorphonuclear leukocyte migration ([2]; 10^-6 M, donor 499): 13%
percent inhibition (-) or enhancement of polymorphonuclear leukocyte migration ([2]; 10^-6 M, donor 591): -39%
percent inhibition (-) or enhancement of polymorphonuclear leukocyte migration ([2]; 10^-6 M, donor 593): -14%
